Measured values taken from PubChem BioAssay AID220 (DTP/NCI, 2004).
Values joined by “and” are separate entries in the source; they are usually repeats but may differ in a detail not shown here. Identical values can stand only once. Results filed as inconclusive are left out.

Tested on: CD8F1 mice, subcutaneous mammary adenocarcinoma, T/C%
Assay: NCI In Vivo Anticancer Drug Screen. Data for tumor model Mammary Adenocarcinoma CD8F1 (subcutaneous) in CD8F1
Conditions: higher = larger tumour
Summary of the method: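 Mice carrying transplanted tumors received test compound, and survival or tumor size was recorded. Each value is the treated-group measurement divided by the corresponding measurement in vehicle-dosed controls.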

[1] = endpoint: median tumor weight change, dose: 250.0 mg/kg/injection, schedule: Q01DX001 (ip), vehicle: saline with Tween-80
[2] = endpoint: median tumor weight change, dose: 500.0 mg/kg/injection, schedule: Q01DX001 (ip), vehicle: saline with Tween-80
[3] = endpoint: median tumor weight change, dose: 1000.0 mg/kg/injection, schedule: Q01DX001 (ip), vehicle: saline with Tween-80

## Nc1nc(N)c2cc(S(=O)(=O)c3ccccc3)ccc2n1
endpoint: median tumor weight change, dose: 62.5 mg/kg/injection, schedule: Q01DX001 (ip), vehicle: saline with Tween-80
  T/C: 102 % of control
endpoint: median tumor weight change, dose: 125.0 mg/kg/injection, schedule: Q01DX001 (ip), vehicle: saline with Tween-80
  T/C: 109 % of control
[1]
  T/C: 67 % of control
[2]
  T/C: 42 % of control
[3]
  T/C: 40 % of control

## Nc1ncnc2c1nnn2C1OC(CO)C(O)C1O (stereo unspecified)
endpoint: median tumor weight change, dose: 62.5 mg/kg/injection, schedule: Q01DX001 (ip), vehicle: Klucel (hydroxypropylcellulose) (HPC)
  T/C: 111 % of control
endpoint: median tumor weight change, dose: 250.0 mg/kg/injection, schedule: Q01DX001 (ip), vehicle: Klucel (hydroxypropylcellulose) (HPC)
  T/C: 39 % of control and 40 % of control

## CCC(C)Nc1ccc(N)cc1 (stereo unspecified)
endpoint: median tumor weight (est.), dose: 0.18 mg/kg/injection, schedule: Q07DX005 (ip), vehicle: Klucel (hydroxypropylcellulose) (HPC)
  T/C: 90 % of control
endpoint: median tumor weight (est.), dose: 0.37 mg/kg/injection, schedule: Q07DX005 (ip), vehicle: Klucel (hydroxypropylcellulose) (HPC)
  T/C: 92 % of control
endpoint: median tumor weight (est.), dose: 0.75 mg/kg/injection, schedule: Q07DX005 (ip), vehicle: Klucel (hydroxypropylcellulose) (HPC)
  T/C: 86 % of control
endpoint: median tumor weight (est.), dose: 1.5 mg/kg/injection, schedule: Q07DX005 (ip), vehicle: Klucel (hydroxypropylcellulose) (HPC)
  T/C: 107 % of control
endpoint: median tumor weight change, dose: 0.2 mg/kg/injection, schedule: Q01DX001 (ip), vehicle: Klucel (hydroxypropylcellulose) (HPC)
  T/C: 123 % of control
endpoint: median tumor weight change, dose: 0.37 mg/kg/injection, schedule: Q01DX001 (ip), vehicle: Klucel (hydroxypropylcellulose) (HPC)
  T/C: 93 % of control
endpoint: median tumor weight change, dose: 0.75 mg/kg/injection, schedule: Q01DX001 (ip), vehicle: Klucel (hydroxypropylcellulose) (HPC)
  T/C: 89 % of control
endpoint: median tumor weight change, dose: 1.5 mg/kg/injection, schedule: Q01DX001 (ip), vehicle: Klucel (hydroxypropylcellulose) (HPC)
  T/C: 101 % of control
endpoint: median tumor weight change, dose: 3.0 mg/kg/injection, schedule: Q01DX001 (ip), vehicle: Klucel (hydroxypropylcellulose) (HPC)
  T/C: 119 % of control

## CC(C)CCCCCCCCCCCCC(=O)NCC(=O)NC1C(C)OC(Nc2ncnc3nc[nH]c23)C(O)C1O (stereo unspecified)
endpoint: median tumor weight (est.), dose: 8.0 mg/kg/injection, schedule: Q07DX005 (ip), vehicle: distilled water + Tween-80
  T/C: 51 % of control
endpoint: median tumor weight (est.), dose: 16.0 mg/kg/injection, schedule: Q07DX005 (ip), vehicle: distilled water + Tween-80
  T/C: 12 % of control

## CNC(=O)OCc1c(COC(=O)NC)c(-c2ccccc2)n(C)c1-c1ccccc1
endpoint: median tumor weight change, dose: 31.25 mg/kg/injection, schedule: Q01DX001 (ip), vehicle: distilled water + Tween-80
  T/C: 54 % of control

## N#C[C@H](OC1OC(COC2OC(CO)C(O)C(O)C2O)C(O)C(O)C1O)c1ccccc1 (stereo partly specified)
endpoint: median tumor weight (est.), dose: 50.0 mg/kg/injection, schedule: Q07DX005 (ip), vehicle: suspension in saline
  T/C: 75 % of control
endpoint: median tumor weight (est.), dose: 100.0 mg/kg/injection, schedule: Q07DX005 (ip), vehicle: saline
  T/C: 76 % of control
endpoint: median tumor weight (est.), dose: 100.0 mg/kg/injection, schedule: Q07DX005 (ip), vehicle: suspension in saline
  T/C: 77 % of control
endpoint: median tumor weight (est.), dose: 200.0 mg/kg/injection, schedule: Q07DX005 (ip), vehicle: saline
  T/C: 95 % of control
endpoint: median tumor weight (est.), dose: 200.0 mg/kg/injection, schedule: Q07DX005 (ip), vehicle: suspension in saline
  T/C: 171 % of control
endpoint: median tumor weight (est.), dose: 400.0 mg/kg/injection, schedule: Q07DX005 (ip), vehicle: saline
  T/C: 83 % of control
endpoint: median tumor weight (est.), dose: 400.0 mg/kg/injection, schedule: Q07DX005 (ip), vehicle: suspension in saline
  T/C: 100 % of control
endpoint: median tumor weight (est.), dose: 800.0 mg/kg/injection, schedule: Q07DX005 (ip), vehicle: saline
  T/C: 96 % of control
endpoint: median tumor weight (est.), dose: 1600.0 mg/kg/injection, schedule: Q07DX005 (ip), vehicle: saline
  T/C: 41 % of control
endpoint: median tumor weight (est.), dose: 1600.0 mg/kg/injection, schedule: Q07DX005 (ip), vehicle: suspension in saline
  T/C: 413 % of control

## Cc1ccc(NC(=O)Oc2ccc(Br)cc2Br)c([N+](=O)[O-])c1
endpoint: median tumor weight (est.), dose: 12.5 mg/kg/injection, schedule: Q07DX005 (ip), vehicle: saline with Tween-80
  T/C: 121 % of control
endpoint: median tumor weight (est.), dose: 25.0 mg/kg/injection, schedule: Q07DX005 (ip), vehicle: saline with Tween-80
  T/C: 93 % of control
endpoint: median tumor weight (est.), dose: 50.0 mg/kg/injection, schedule: Q07DX005 (ip), vehicle: saline with Tween-80
  T/C: 115 % of control
endpoint: median tumor weight (est.), dose: 100.0 mg/kg/injection, schedule: Q07DX005 (ip), vehicle: saline with Tween-80
  T/C: 77 % of control
endpoint: median tumor weight (est.), dose: 200.0 mg/kg/injection, schedule: Q07DX005 (ip), vehicle: saline with Tween-80
  T/C: 124 % of control
endpoint: median tumor weight (est.), dose: 400.0 mg/kg/injection, schedule: Q07DX005 (ip), vehicle: saline with Tween-80
  T/C: 98 % of control
[1]
  T/C: 52 % of control
[2]
  T/C: 88 % of control
[3]
  T/C: 50 % of control
endpoint: median tumor weight change, dose: 1800.0 mg/kg/injection, schedule: Q01DX001 (ip), vehicle: saline with Tween-80
  T/C: 74 % of control
endpoint: median tumor weight change, dose: 2000.0 mg/kg/injection, schedule: Q01DX001 (ip), vehicle: saline with Tween-80
  T/C: 59 % of control
endpoint: median tumor weight change, dose: 3600.0 mg/kg/injection, schedule: Q01DX001 (ip), vehicle: saline with Tween-80
  T/C: 44 % of control
